Test results published in the supplement of paper PMC10307832.

What was measured:
Assay in all cases: relative viability (nuclei count vs DMSO), 5 days (fraction); higher = more cells survive
ABC-1 = system: ABC-1
Procedure, shortened: (§1)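 One day after seeding in 1536-well plates, lung cancer cell lines were dosed by pin tool. Dosing was either single-drug or a fixed anchor-drug dose plus five library-drug doses (not always all listed) in √10 steps. After 5 days, nuclei were stained in one fix-and-stain step and counted on 4× images, and relative viability is the nuclei count of treated wells over that of vehicle wells, given as the median of duplicate plates.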

ChaGo-K-1 = system: ChaGo-K-1
Procedure, shortened: as §1

HCC-78 = system: HCC-78
Procedure, shortened: as §1

HOP-62 = system: HOP-62
Procedure, shortened: as §1

LCLC-97TM1 = system: LCLC-97TM1
Procedure, shortened: as §1

LOU-NH91 = system: LOU-NH91
Procedure, shortened: as §1

NCI-H1355 = system: NCI-H1355
Procedure, shortened: as §1

NCI-H1437 = system: NCI-H1437
Procedure, shortened: as §1

NCI-H1755 = system: NCI-H1755
Procedure, shortened: as §1

NCI-H1792 = system: NCI-H1792
Procedure, shortened: as §1

NCI-H2009 = system: NCI-H2009
Procedure, shortened: as §1

NCI-H2023 = system: NCI-H2023
Procedure, shortened: as §1

NCI-H2085 = system: NCI-H2085
Procedure, shortened: as §1

NCI-H2170 = system: NCI-H2170
Procedure, shortened: as §1

NCI-H23 = system: NCI-H23
Procedure, shortened: as §1

NCI-H2405 = system: NCI-H2405
Procedure, shortened: as §1

NCI-H322M = system: NCI-H322M
Procedure, shortened: as §1

NCI-H441 = system: NCI-H441
Procedure, shortened: as §1

NCI-H650 = system: NCI-H650
Procedure, shortened: as §1

NCI-H727 = system: NCI-H727
Procedure, shortened: as §1

RERF-LC-KJ = system: RERF-LC-KJ
Procedure, shortened: as §1

SK-MES-1 = system: SK-MES-1
Procedure, shortened: as §1

UMC-11 = system: UMC-11
Procedure, shortened: as §1

## O=c1[nH]c2ccccc2n1C1CCN(CCCC(c2ccc(F)cc2)c2ccc(F)cc2)CC1 [Pimozide] + N=C(N)NC(=N)NCCc1ccccc1 [Phenformin] (partner 250 µM)
ABC-1; first compound 0.08 µM
  relative viability: 0.265
ABC-1; first compound 0.253 µM
  relative viability: 0.258
ABC-1; first compound 0.8 µM
  relative viability: 0.227
ABC-1; first compound 2.53 µM
  relative viability: 0.287
ABC-1; first compound 8 µM
  relative viability: 0.209
ChaGo-K-1; first compound 0.08 µM
  relative viability: 0.565
ChaGo-K-1; first compound 0.253 µM
  relative viability: 0.529
ChaGo-K-1; first compound 0.8 µM
  relative viability: 0.461
ChaGo-K-1; first compound 2.53 µM
  relative viability: 0.458
ChaGo-K-1; first compound 8 µM
  relative viability: 0.399
HCC-78; first compound 0.08 µM
  relative viability: 0.781
HCC-78; first compound 0.8 µM
  relative viability: 0.628
HCC-78; first compound 2.53 µM
  relative viability: 0.635
HCC-78; first compound 8 µM
  relative viability: 0.678
HOP-62; first compound 0.08 µM
  relative viability: 0.67
HOP-62; first compound 0.253 µM
  relative viability: 0.657
HOP-62; first compound 2.53 µM
  relative viability: 0.644
HOP-62; first compound 8 µM
  relative viability: 0.655
LCLC-97TM1; first compound 0.08 µM
  relative viability: 0.487
LCLC-97TM1; first compound 0.253 µM
  relative viability: 0.403
LCLC-97TM1; first compound 0.8 µM
  relative viability: 0.356
LCLC-97TM1; first compound 2.53 µM
  relative viability: 0.418
LCLC-97TM1; first compound 8 µM
  relative viability: 0.413
LOU-NH91; first compound 0.08 µM
  relative viability: 0.43
LOU-NH91; first compound 0.253 µM
  relative viability: 0.702
LOU-NH91; first compound 0.8 µM
  relative viability: 0.677
LOU-NH91; first compound 2.53 µM
  relative viability: 0.79
LOU-NH91; first compound 8 µM
  relative viability: 0.581
NCI-H1355; first compound 0.08 µM
  relative viability: 0.45
NCI-H1355; first compound 0.253 µM
  relative viability: 0.435
NCI-H1355; first compound 0.8 µM
  relative viability: 0.437
NCI-H1355; first compound 2.53 µM
  relative viability: 0.417
NCI-H1355; first compound 8 µM
  relative viability: 0.404
NCI-H1437; first compound 0.08 µM
  relative viability: 0.395
NCI-H1437; first compound 0.253 µM
  relative viability: 0.318
NCI-H1437; first compound 0.8 µM
  relative viability: 0.327
NCI-H1437; first compound 2.53 µM
  relative viability: 0.275
NCI-H1437; first compound 8 µM
  relative viability: 0.25
NCI-H1755; first compound 0.08 µM
  relative viability: 0.585
NCI-H1755; first compound 0.253 µM
  relative viability: 0.587
NCI-H1755; first compound 0.8 µM
  relative viability: 0.574
NCI-H1755; first compound 2.53 µM
  relative viability: 0.64
NCI-H1755; first compound 8 µM
  relative viability: 0.538
NCI-H1792; first compound 0.08 µM
  relative viability: 0.356
NCI-H1792; first compound 0.253 µM
  relative viability: 0.314
NCI-H1792; first compound 2.53 µM
  relative viability: 0.233
NCI-H1792; first compound 8 µM
  relative viability: 0.278
NCI-H2009; first compound 0.08 µM
  relative viability: 0.476
NCI-H2009; first compound 0.253 µM
  relative viability: 0.479
NCI-H2009; first compound 0.8 µM
  relative viability: 0.507
NCI-H2009; first compound 2.53 µM
  relative viability: 0.46
NCI-H2009; first compound 8 µM
  relative viability: 0.391
NCI-H2023; first compound 0.08 µM
  relative viability: 0.41
NCI-H2023; first compound 0.253 µM
  relative viability: 0.403
NCI-H2023; first compound 0.8 µM
  relative viability: 0.397
NCI-H2023; first compound 2.53 µM
  relative viability: 0.385
NCI-H2023; first compound 8 µM
  relative viability: 0.354
NCI-H2085; first compound 0.08 µM
  relative viability: 0.681
NCI-H2085; first compound 0.253 µM
  relative viability: 0.732
NCI-H2085; first compound 0.8 µM
  relative viability: 0.58
NCI-H2085; first compound 2.53 µM
  relative viability: 0.705
NCI-H2085; first compound 8 µM
  relative viability: 0.637
NCI-H2170; first compound 0.08 µM
  relative viability: 0.411
NCI-H2170; first compound 0.253 µM
  relative viability: 0.383
NCI-H2170; first compound 0.8 µM
  relative viability: 0.44
NCI-H2170; first compound 2.53 µM
  relative viability: 0.399
NCI-H2170; first compound 8 µM
  relative viability: 0.367
NCI-H23; first compound 0.08 µM
  relative viability: 0.782
NCI-H23; first compound 0.253 µM
  relative viability: 0.741
NCI-H23; first compound 0.8 µM
  relative viability: 0.673
NCI-H23; first compound 2.53 µM
  relative viability: 0.692
NCI-H23; first compound 8 µM
  relative viability: 0.79
NCI-H2405; first compound 0.08 µM
  relative viability: 0.412
NCI-H2405; first compound 0.253 µM
  relative viability: 0.389
NCI-H2405; first compound 0.8 µM
  relative viability: 0.478
NCI-H2405; first compound 2.53 µM
  relative viability: 0.381
NCI-H2405; first compound 8 µM
  relative viability: 0.418
NCI-H322M; first compound 0.253 µM
  relative viability: 0.738
NCI-H322M; first compound 0.8 µM
  relative viability: 0.766
NCI-H322M; first compound 2.53 µM
  relative viability: 0.816
NCI-H322M; first compound 8 µM
  relative viability: 0.749
NCI-H441; first compound 0.08 µM
  relative viability: 0.96
NCI-H441; first compound 0.253 µM
  relative viability: 0.758
NCI-H441; first compound 0.8 µM
  relative viability: 0.767
NCI-H441; first compound 2.53 µM
  relative viability: 0.783
NCI-H441; first compound 8 µM
  relative viability: 0.825
NCI-H650; first compound 0.08 µM
  relative viability: 0.445
NCI-H650; first compound 0.253 µM
  relative viability: 0.452
NCI-H650; first compound 0.8 µM
  relative viability: 0.417
NCI-H650; first compound 2.53 µM
  relative viability: 0.467
NCI-H650; first compound 8 µM
  relative viability: 0.457
NCI-H727; first compound 0.08 µM
  relative viability: 0.467
NCI-H727; first compound 0.253 µM
  relative viability: 0.641
NCI-H727; first compound 0.8 µM
  relative viability: 0.448
NCI-H727; first compound 2.53 µM
  relative viability: 0.684
NCI-H727; first compound 8 µM
  relative viability: 0.577
RERF-LC-KJ; first compound 0.08 µM
  relative viability: 0.416
RERF-LC-KJ; first compound 0.253 µM
  relative viability: 0.467
RERF-LC-KJ; first compound 0.8 µM
  relative viability: 0.409
RERF-LC-KJ; first compound 2.53 µM
  relative viability: 0.264
RERF-LC-KJ; first compound 8 µM
  relative viability: 0.401
SK-MES-1; first compound 0.08 µM
  relative viability: 0.628
SK-MES-1; first compound 0.253 µM
  relative viability: 0.619
SK-MES-1; first compound 0.8 µM
  relative viability: 0.664
SK-MES-1; first compound 2.53 µM
  relative viability: 0.587
SK-MES-1; first compound 8 µM
  relative viability: 0.603
UMC-11; first compound 0.08 µM
  relative viability: 0.331
UMC-11; first compound 0.253 µM
  relative viability: 0.333
UMC-11; first compound 0.8 µM
  relative viability: 0.344
UMC-11; first compound 2.53 µM
  relative viability: 0.313
UMC-11; first compound 8 µM
  relative viability: 0.245
